Measured values reported in patent US10578610B2, “Peptide regulators of mitochondrial fusion and methods of use” (priority 2016, dated 2020).
Where two headings read alike, the source gives them in different places. Ends that are not written are not given here.

How the values were obtained:
WT MEFs = format: cell-based, murine; conditions: for mitochondrial aspect ratio (effect of TAT fusion construct): WT MEFs, varying concentrations / time course; for EC50: mitochondrial aspect ratio dose response; for EC50 / half-time for mitochondrial shape change: MEFs; for half-time for mitochondrial shape change: time course
Protocol: MEFs or neurons were grown on chamber slides and infected with recombinant adenoviri for 48-72 hours unless otherwise indicated. MEFs were stained with MitoTracker Green (200 nM, Invitrogen M7514) and Blue Hoechst (10 mg/ml, Invitrogen H3570), with or without tetramethylrhodamine ethyl ester (TMRE; 200 nM, Invitrogen T-669). Neuronal mitochondria were labeled with adenoviral-expressed mitoGFP plus TMRE, or with adeno-mitoDsRed for time-lapse studies. Cover slips were loaded onto a chamber (Warner instrument, RC-40LP) in modified Krebs-Henseleit buffer (138 mM NaCl, 3.7 mM KCl, 1.2 mM KH2PO4, 15 mM Glucose, 20 mM HEPES and 1 mM CaCl2) at room temperature and visualized on a Nikon Ti Confocal microscope equipped with a 60×1.3 NA oil immersion objective. For mitophagy studies MEFs were stained with MitoTracker Green and infected with adeno-mcherry Parkin or stained with LysoTracker Deep Red (50 nM, Invitrogen L-7528); carbonylcyanide p-trifluoromethoxyphenylhydrazone (FCCP, 10 μM for 1 hour) was applied as a positive control. Mitochondrial fusion was measured at 2 and 6 hours after PEG-mediated cell fusion of MEFs treated 48 hours previously with adeno-mitoGFP or adeno-mitoDsRed (Chen et al., 2005, J Biol Chem, 280:26185-26192). Laser confocal fluorescence was excited with 561 nm (MitoTracker Green, GFP, FITC), 637 nm (TMRE, LysoTracker Red, mcherry-Parkin, MitoTracker Orange) or 408 nm (Blue Hoechst) laser diodes. Image analysis—Mitochondrial aspect ratio was calculated using automated edge detection and Image J software (Song et al., 2015, Cell Metab, 21:273-285). Mitochondrial depolarization was calculated as % of green mitochondria visualized on MitoTracker Green and TMRE merged images, expressed as green/(green+yellow mitochondria)×100. Parkin aggregation was calculated as % of cells with mitochondrial clumping of mcherry-Parkin (Song et al., 2015, Cell Metab, 21:273-285). Lysosomal engulfment of mitochondria was identified by colocalization of LysoTracker Red and MitoTracker Green (Song et al., 2015, Cell Metab, 21:273-285).
TAT47-57 is a well-characterized “carrier” peptide able to promote active cellular peptide uptake. Specifically, a linear peptide was constructed in which the hMfn2 modulatory peptide was linked by a peptide bond at its C-terminus to a Gly-Gly dipeptide linker whose C-terminus was linked by a peptide bond to the TAT47-57 peptide having the sequence YGRKKRRQRRR (SEQ ID NO:25). The resultant linear fusion-promoting peptide conjugate comprises the sequence […] (SEQ ID NO:23). The fusion-inhibiting linear peptide has the sequence […] (SEQ ID NO:24). Except for dose-response studies, stock concentrations of TAT-minipeptides in sterile water were applied to cultured MEFs at a dilution factor of 1:2000 to achieve final concentrations of 1 or 5 μM.
The functional consequences of the Mfn2 HR1-derived peptides were defined after synthesizing them as C-terminal TAT47-57 conjugates to promote active cellular uptake. Mitochondrial fusion can be detected by mixing of organellar contents (Chen et al., 2005, J Biol Chem, 280:26185-26192). […] (FIG. 8A, scale bar is 20 microns). Mitochondrial aspect ratio changed in parallel with mitochondrial mixing (FIG. 8B).
Experiments were performed with these shortened variants fused to a carrier peptide via a linker according to the methods described in Example 5 above. Wildtype MEFs were treated with varying concentrations of peptide fusion constructs described in Table 4 and mitochondrial aspect ratios determined. A dose response curve for TetherX-N and -C variants are shown in FIG. 17A (squares are data for TetherX-N and circles are for TetherX-C). The dose response curve for GoFuse-N and -C variants are shown in FIG. 17B (squares are for GoFuse-N and circles are for GoFuse-C).

[1] = test system: mitochondrial mitofusins in WT MEFs; test: Confocal localization of FITC-labeled TAT-minipeptides; format: cell-based, murine
Protocol: The above results support the premise that TAT-conjugated Mfn2 minipeptides affect mitochondrial fusion by modulating Mfn1 and Mfn2 conformation according to the dynamic structure model depicted in FIGS. 3A-3C. Additional studies were performed to validate this mechanism of action using the minipeptide-Mfn2 binding assay procedure. Confocal localization of FITC-labeled TAT-minipeptides in WT MEFs and Mfn null MEFs (Mfn1/Mfn2 DKO) was used for analysis of interaction between the minipeptides and mitochondrial mitofusins. Mitochondria were stained with MitoTracker Orange; nucleus was stained with Blue Hoechst. Line-scans were generated for the confocal photographs.
Thus, cell-internalized TAT-conjugated Mfn2 HR1 minipeptides bind specifically to mitochondrial mitofusins.

QIAEAVRGIMDSLHMAARGGYGRKKRRQRRR [TAT-367-384Gly]
mitochondrial aspect ratio (effect of TAT fusion construct) (WT MEFs): increased the mitochondrial aspect ratio
EC50 (WT MEFs; read-out: EC50 for mitochondrial elongation (enhanced fusion)): 280 ± 90 nM
half-time for mitochondrial shape change (WT MEFs): approximately 2 hours
localization of FITC-labeled TAT-peptide to mitochondria [1]: decorated mitochondria

QDRLKFIDKQGELLAQDYKLRGGYGRKKRRQRRR [TAT-398-418Gly]
mitochondrial aspect ratio (effect of TAT fusion construct) (WT MEFs): decreased mitochondrial aspect ratio
EC50 (WT MEFs; read-out: EC50 for mitochondrial shortening (suppressed fusion)): 250 ± 90 nM
half-time for mitochondrial shape change (WT MEFs): approximately 2 hours
localization of FITC-labeled TAT-peptide to mitochondria [1]: decorated mitochondria
